Values quoted from earlier work in patent publication US6479458B1, “Targeting the reverse mode of the Na+/Ca2+ exchanger for the treatment of optic neuropathy associated with glaucoma and ischemic optic neuropathy” (Allergan, Inc., priority 2001, dated 2002).

Assays:
Na+/Ca2+ exchanger = conditions: variety of cell types including neurons

Row | Compound | block of the reverse mode of the Na+/Ca2+ exchanger (Na+/Ca2+ exchanger) | inhibition of sodium-calcium exchange (sodium-calcium exchange)
1 | CS(=O)(=O)O.N=C(N)SCCc1ccc(OCc2ccc([N+](=O)[O-])cc2)cc1 [KB-R743] | preferentially block the reverse mode | 
2 | cyclosporin A |  | specific activity in the inhibition of sodium-calcium exchange
